Bounds are passed on as bounds.

The experiment deals with T1, human CPT1A (Homo sapiens, UniProt P50416).
T1 construct: made in house; host or cells: Saccharomyces cerevisiae (pESC-trp) or cultured mammalian cells (pCDNA3.1); mitochondrial extract
T1 sequence (P50416 1-773): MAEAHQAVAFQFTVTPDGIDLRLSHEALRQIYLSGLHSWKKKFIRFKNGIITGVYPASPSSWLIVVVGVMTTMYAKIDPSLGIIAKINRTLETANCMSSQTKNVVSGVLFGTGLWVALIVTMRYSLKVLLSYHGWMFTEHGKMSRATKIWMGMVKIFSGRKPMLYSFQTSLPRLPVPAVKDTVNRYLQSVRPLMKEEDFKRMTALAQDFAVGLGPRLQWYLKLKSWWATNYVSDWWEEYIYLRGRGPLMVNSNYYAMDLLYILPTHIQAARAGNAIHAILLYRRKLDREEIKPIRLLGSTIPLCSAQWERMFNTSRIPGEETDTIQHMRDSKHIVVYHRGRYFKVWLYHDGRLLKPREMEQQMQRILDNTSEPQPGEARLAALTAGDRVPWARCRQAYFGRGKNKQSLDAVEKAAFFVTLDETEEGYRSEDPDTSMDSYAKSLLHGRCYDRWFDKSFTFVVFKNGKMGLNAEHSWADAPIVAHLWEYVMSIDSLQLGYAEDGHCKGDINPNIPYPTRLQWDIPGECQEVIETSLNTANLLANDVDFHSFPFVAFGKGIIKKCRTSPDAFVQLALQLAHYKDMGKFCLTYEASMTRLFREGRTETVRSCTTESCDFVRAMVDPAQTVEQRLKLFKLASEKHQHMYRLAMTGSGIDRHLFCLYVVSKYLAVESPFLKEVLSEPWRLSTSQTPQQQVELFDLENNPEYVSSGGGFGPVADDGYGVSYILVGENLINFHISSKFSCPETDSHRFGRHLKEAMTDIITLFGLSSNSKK
The experiment in a line: Human CPT1A LC/MS assay. The format is biochemical. The settings on record: human CPT1A LC/MS assay, dose response format. The essentials: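 Mitochondrial extracts (1.6 μg protein) expressing human CPT1A, preincubated 10 min with compound in 20% DMSO, then reacted 10 min at room temperature with 20 μM palmitoyl-CoA, 50 μM L-carnitine (pH 7.5). Palmitoyl carnitine was quantified by LC/MS against a myristoyl carnitine standard; 16-point, 2-fold titrations gave dose response.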
For the compound `CCCCCCCCCCc1ccc(S(=O)(=O)N[C@H](CC(=O)O)C[N+](C)(C)C)cc1` [Example S75, (R)-3-carboxy-2-(4-decylphenylsulfonamido)-N,N,N-trimethylpropan-1-aminium 2,2,2-trifluoroacetate], the IC50 (as a rule, the concentration that gives 50% inhibition) lay within 1 to 10 µM. To `CCCCCCCCCCCCc1ccc(NS(=O)(=O)N[C@H](CC(=O)O)C[N+](C)(C)C)cc1` [Example S89, (R)-3-(N-(4-dodecylphenyl)sulfamoylamino)-4-(trimethylammonio)-butanoate] belongs not above 1 µM; to `CCCCCCCCCCCCCCc1ccc(NS(=O)(=O)N[C@H](CC(=O)O)C[N+](C)(C)C)cc1` [Example S90, (R)-3-(N-(4-tetradecylphenyl)sulfamoylamino)-4-(trimethylammonio)-butanoate], not above 1 µM; to `CCCCCCCOc1ccc(NC(=O)N[C@H](CC(=O)[O-])C[N+](C)(C)C)cc1` [Example S10, (R)-3-(3-(4-(heptyloxy)phenyl)ureido)-4-(trimethylammonio)butanoate], 10 to 100 µM. To `CCCCCCCCCCc1ccc(C(=O)N[C@H](CC(=O)[O-])C[N+](C)(C)C)cc1` [Example S66, (R)-3-(4-decylbenzamido)-4-(trimethylammonio)butanoate] belongs not above 1 µM; to `CCCCCCCCCCOc1cccc(C(=O)N[C@H](CC(=O)[O-])C[N+](C)(C)C)c1` [Example S67, (R)-3-(3-(decyloxy)benzamido)-4-(trimethylammonio)butanoate], 10 to 100 µM.

`CCCCCCCCCCOc1ccc(C(=O)N[C@H](CC(=O)O)C[N+](C)(C)C)cc1` [Example S63, (R)-3-(4-(decyloxy)benzamido)-4-(trimethylammonio)butanoate 2,2,2-trifluoroacetate]: the IC50 was not above 1 µM. In the case of `CCCCCCCCc1ccc(NC(=O)N[C@H](CC(=O)[O-])C[N+](C)(C)C)cc1` [Example S7, (R)-3-(3-(4-octylphenyl)ureido)-4-(trimethylammonio)butanoate] it was 1 to 10 µM.

These data come from patent US8410150B2, “Inhibitors of carnitine palmitoyltransferase and treating cancer” (University Health Network, priority 2007, dated 2013).
